25 molecules from PubChem BioAssay (NCI) can be followed below.

Each structure is given as a SMILES string.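 Grown in 96-well plates, cells were treated for 48 hours with each compound at five concentrations. Insufficient inhibition: endpoint recorded as highest concentration tested. Here, GI50 denotes the concentration required for 50% inhibition of growth. The concentration for full growth arrest is given as TGI.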

This experiment deals with MDA-MB-468 breast. The experiment can be described thus: NCI tumour cell line growth inhibition, 48 h.

For the molecule `COc1ccc2cnc(N)c(C#Cc3cc(C(=O)Nc4ccc(CN5CCN(C)CC5)c(C(F)(F)F)c4)cnc3C)c2c1`, the GI50 was 8830 nM and the TGI is 27.6 µM. The matching figures for `CCOC(=O)c1c(NC(=O)c2cccc(C(F)(F)F)c2)sc2c(CN3CCN(C)CC3)c(O)ccc12`: 1650 nM and 3.25 µM.

Take `C[C@H](Nc1ccc2c(c1)OCCn1cc(N3C(=O)OC[C@H]3C(F)F)nc1-2)C(N)=O`: the GI50 was 343 nM and the TGI was found to be 6.27 µM. As to `CN1CCN(CCOc2ccc(-c3cnc4c(-c5cccc(F)c5F)cnn4c3)cc2)CC1`, the GI50 was 1450 nM and the TGI turned out to be 3.06 µM. The like results for `c1ccc(-c2n(Cc3ccc4ccccc4n3)cc[n+]2Cc2ccc3ccccc3n2)cc1` were, in that order, 221 nM and 1.43 µM. For `Cn1ccnc1C(=O)/C=C/c1ccc(C(=O)Nc2ccc(F)cc2)cc1`, the GI50 is 813 nM and the TGI was found to be 3.06 µM. In the case of `COc1ccc2c(c1)c(-c1nonc1-c1cn(C)c3ccccc13)cn2C`, the GI50 is 330 nM.

As for `COC(=O)c1ccc2[nH]c(O)c(C(=Nc3ccc(N(C)C(=O)CN4CCN(C)CC4)cc3)c3cccc(OC)c3)c2c1`, the GI50 is 1440 nM and the TGI was 3.5 µM. The like results for `CN(C)c1ccc2nc3ccc(=[N+](C)C)c([N+](=O)[O-])c-3sc2c1` were, in that order, 1410 nM and 3.35 µM.

For the molecule `Cc1cc2nc(CS)[nH]c2cc1C`, the GI50 was 13000 nM and the TGI worked out at 30.4 µM.

As to `CCOC(=O)C(=Cc1ccc(-c2ccccc2)cc1)C(=O)OCC`, the GI50 was 3240 nM and the TGI was 10.1 µM. The matching figures for `O=S(=O)(Nc1cccc(Cl)c1)c1ccc(-c2cnc(C3CC3)o2)cc1`: 411 nM and 12.2 µM. The like results for `Cc1ccc(C2CC(c3cccc(Nc4ccncc4)c3)=NN2c2cc(Cl)cc(Cl)c2)cc1` (centres undefined) were, in that order, 1410 nM and 2.84 µM. The like results for `N#Cc1c(NC(=O)c2cccc(C(F)(F)F)c2F)sc2c1CCC(=O)C2` were, in that order, 292 nM and 1.03 µM. As to `CC[C@H](C)[C@H](NC(=O)C12CC(NC)(C1)C2)C(=O)N(C)[C@H](C[C@@H](OC(C)=O)c1nc(C(=O)N[C@@H](Cc2ccccc2)C[C@H](C)C(=O)OC)cs1)C(C)C`, the GI50 was 59.1 nM and the TGI was determined as 2.26 µM. The matching figures for `COc1ccc(OC)c(N(CCN2C(=O)c3ccccc3C2=O)C(=O)CCl)c1`: 4430 nM and 22 µM. The matching figures for `COc1ccc(-c2nc(S(=O)(=O)c3ccccc3)c(S(=O)CC(=O)N3CCC(C)CC3)o2)cc1` (centres undefined): 1630 nM and 4.65 µM. The like results for `Cc1ccc2c(c1)C(=O)C(c1c(-c3[nH]c(=O)c4ccc(C)cc4c3O)c(O)c3ccccc3c1O)=NC2=O` were, in that order, 313 nM and 0.987 µM. For the molecule `C=C1CC[C@@H]2C(C)(C)[C@H](O)CC[C@@]2(C)[C@@H]1COc1ccc2ccc(=O)oc2c1`, the GI50 was 20500 nM and the TGI worked out at 78.2 µM. The like results for `Cc1cc(Cl)ccc1Nc1nc(C(F)(F)F)ccc1C(=O)N/N=C/c1cccc(O)c1` were, in that order, 1510 nM and 9.69 µM. The matching figures for `O=C1/C(=C/c2ccc(Cl)cc2Cl)CN(S(=O)(=O)c2ccccc2)C/C1=C\c1ccc(Cl)cc1Cl`: 687 nM and 2.73 µM. With `O=C1Nc2ccccc2/C1=C/C(=N/c1nnc(-c2ccc(Cl)cc2)s1)c1ccccc1`, the GI50 is 2020 nM and the TGI turned out to be 6.27 µM. The like results for `N#C/C(=C\c1ccc2c(c1)OCO2)n1nnc2ccccc21` were, in that order, 555 nM and 7.98 µM. As for `COc1cc(/C=C\c2cc(/C=C\c3ccc(O)c(OC)c3)n(C(=O)COc3ccc(Cl)cc3Cl)n2)ccc1O`, the GI50 was 1990 nM and the TGI is 5.34 µM. For the molecule `CCOc1cc2ncc(C#N)c(Nc3ccc(F)c(Cl)c3)c2cc1NC(=O)CC1CCSS1` (centres undefined), the GI50 was 473 nM and the TGI stood at 1.17 µM.
